Here are results for 19 compounds from ChEMBL document CHEMBL4000238, “Discovery of core-structurally novel PTP1B inhibitors with specific selectivity containing oxindole-fused spirotetrahydrofurochroman by one-pot reaction” (Bioorg Med Chem Lett, 2017).

Each structure is given as a SMILES string.

The target of assay [1] is T1, Tyrosine-protein phosphatase non-receptor type 1 (Homo sapiens, UniProt P18031).
T1 sequence (P18031 whole entry): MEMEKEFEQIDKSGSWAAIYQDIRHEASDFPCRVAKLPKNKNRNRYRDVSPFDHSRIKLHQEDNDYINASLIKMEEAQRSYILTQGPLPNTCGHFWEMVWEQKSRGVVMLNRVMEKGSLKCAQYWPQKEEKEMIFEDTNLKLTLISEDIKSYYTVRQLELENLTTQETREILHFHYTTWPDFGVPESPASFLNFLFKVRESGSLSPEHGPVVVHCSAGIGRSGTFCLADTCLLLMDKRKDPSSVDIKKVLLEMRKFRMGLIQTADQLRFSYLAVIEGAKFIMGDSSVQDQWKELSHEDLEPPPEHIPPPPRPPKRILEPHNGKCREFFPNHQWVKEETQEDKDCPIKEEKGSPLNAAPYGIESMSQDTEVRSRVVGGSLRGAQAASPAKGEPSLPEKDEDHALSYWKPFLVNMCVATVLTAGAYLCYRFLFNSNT
Kind of assay: Inhibition of recombinant human PTP1B catalytic domain expressed in Escherichia coli BL21-CodonPlus (DE3) using pNPP as substrate measured for 2 mins.

Assay [2] concerns the target Receptor-type tyrosine-protein phosphatase F (Homo sapiens) (UniProt P10586). The experiment in a line: Inhibition of GST-tagged human LAR expressed in Escherichia coli at 20 ug/ml using pNPP as substrate relative to control.
The target in assay [3] is T2, Tyrosine-protein phosphatase non-receptor type 6 (Homo sapiens, UniProt P29350). The experiment in a line: Inhibition of GST-tagged human SHP1 expressed in Escherichia coli at 20 ug/ml using pNPP as substrate relative to control.
T2 sequence (P29350 whole entry): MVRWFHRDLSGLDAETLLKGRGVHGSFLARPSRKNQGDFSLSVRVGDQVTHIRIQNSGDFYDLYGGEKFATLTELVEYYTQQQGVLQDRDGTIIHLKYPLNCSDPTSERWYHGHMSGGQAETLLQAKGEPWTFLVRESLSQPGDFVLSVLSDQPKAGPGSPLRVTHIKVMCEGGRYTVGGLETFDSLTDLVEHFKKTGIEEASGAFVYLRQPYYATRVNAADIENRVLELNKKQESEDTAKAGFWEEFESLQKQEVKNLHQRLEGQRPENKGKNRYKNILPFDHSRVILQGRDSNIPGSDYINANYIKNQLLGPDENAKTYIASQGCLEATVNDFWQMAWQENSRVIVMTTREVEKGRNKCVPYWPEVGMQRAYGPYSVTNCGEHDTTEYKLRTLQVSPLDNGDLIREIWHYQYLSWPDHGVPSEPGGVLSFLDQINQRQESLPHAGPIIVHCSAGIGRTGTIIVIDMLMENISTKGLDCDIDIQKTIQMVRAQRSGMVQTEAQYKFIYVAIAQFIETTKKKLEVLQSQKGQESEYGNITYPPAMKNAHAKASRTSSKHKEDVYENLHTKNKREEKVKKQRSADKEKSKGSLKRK
The target in assay [4] is T3, Tyrosine-protein phosphatase non-receptor type 2 (Homo sapiens) (UniProt P17706).
T3 sequence (whole entry): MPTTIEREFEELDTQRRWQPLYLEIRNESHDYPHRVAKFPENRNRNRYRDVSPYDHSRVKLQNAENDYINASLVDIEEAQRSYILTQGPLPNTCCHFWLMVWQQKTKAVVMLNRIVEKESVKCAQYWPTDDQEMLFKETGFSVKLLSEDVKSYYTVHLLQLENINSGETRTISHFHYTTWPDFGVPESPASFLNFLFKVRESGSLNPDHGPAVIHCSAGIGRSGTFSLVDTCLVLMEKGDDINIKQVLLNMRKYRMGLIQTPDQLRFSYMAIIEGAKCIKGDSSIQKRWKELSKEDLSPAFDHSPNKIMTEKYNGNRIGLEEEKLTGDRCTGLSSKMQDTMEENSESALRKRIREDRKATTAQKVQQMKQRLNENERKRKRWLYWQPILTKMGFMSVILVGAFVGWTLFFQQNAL
Kind of assay: Inhibition of GST-tagged human […] expressed in Escherichia coli at 20 ug/ml using pNPP as substrate relative to control.

The target in assay [5] is T2, Tyrosine-protein phosphatase non-receptor type 6. The experiment in a line: Inhibition of GST-tagged human SHP1 expressed in Escherichia coli using pNPP as substrate.
For assay [6], the target named is T4, Tyrosine-protein phosphatase non-receptor type 2 (Homo sapiens, UniProt P17706).
T4 sequence (P17706 whole entry): T3 sequence (whole entry)
Kind of assay: Inhibition of GST-tagged human […] expressed in Escherichia coli using pNPP as substrate.

Chain of Receptor-type tyrosine-protein phosphatase F (Homo sapiens) (P10586 whole entry): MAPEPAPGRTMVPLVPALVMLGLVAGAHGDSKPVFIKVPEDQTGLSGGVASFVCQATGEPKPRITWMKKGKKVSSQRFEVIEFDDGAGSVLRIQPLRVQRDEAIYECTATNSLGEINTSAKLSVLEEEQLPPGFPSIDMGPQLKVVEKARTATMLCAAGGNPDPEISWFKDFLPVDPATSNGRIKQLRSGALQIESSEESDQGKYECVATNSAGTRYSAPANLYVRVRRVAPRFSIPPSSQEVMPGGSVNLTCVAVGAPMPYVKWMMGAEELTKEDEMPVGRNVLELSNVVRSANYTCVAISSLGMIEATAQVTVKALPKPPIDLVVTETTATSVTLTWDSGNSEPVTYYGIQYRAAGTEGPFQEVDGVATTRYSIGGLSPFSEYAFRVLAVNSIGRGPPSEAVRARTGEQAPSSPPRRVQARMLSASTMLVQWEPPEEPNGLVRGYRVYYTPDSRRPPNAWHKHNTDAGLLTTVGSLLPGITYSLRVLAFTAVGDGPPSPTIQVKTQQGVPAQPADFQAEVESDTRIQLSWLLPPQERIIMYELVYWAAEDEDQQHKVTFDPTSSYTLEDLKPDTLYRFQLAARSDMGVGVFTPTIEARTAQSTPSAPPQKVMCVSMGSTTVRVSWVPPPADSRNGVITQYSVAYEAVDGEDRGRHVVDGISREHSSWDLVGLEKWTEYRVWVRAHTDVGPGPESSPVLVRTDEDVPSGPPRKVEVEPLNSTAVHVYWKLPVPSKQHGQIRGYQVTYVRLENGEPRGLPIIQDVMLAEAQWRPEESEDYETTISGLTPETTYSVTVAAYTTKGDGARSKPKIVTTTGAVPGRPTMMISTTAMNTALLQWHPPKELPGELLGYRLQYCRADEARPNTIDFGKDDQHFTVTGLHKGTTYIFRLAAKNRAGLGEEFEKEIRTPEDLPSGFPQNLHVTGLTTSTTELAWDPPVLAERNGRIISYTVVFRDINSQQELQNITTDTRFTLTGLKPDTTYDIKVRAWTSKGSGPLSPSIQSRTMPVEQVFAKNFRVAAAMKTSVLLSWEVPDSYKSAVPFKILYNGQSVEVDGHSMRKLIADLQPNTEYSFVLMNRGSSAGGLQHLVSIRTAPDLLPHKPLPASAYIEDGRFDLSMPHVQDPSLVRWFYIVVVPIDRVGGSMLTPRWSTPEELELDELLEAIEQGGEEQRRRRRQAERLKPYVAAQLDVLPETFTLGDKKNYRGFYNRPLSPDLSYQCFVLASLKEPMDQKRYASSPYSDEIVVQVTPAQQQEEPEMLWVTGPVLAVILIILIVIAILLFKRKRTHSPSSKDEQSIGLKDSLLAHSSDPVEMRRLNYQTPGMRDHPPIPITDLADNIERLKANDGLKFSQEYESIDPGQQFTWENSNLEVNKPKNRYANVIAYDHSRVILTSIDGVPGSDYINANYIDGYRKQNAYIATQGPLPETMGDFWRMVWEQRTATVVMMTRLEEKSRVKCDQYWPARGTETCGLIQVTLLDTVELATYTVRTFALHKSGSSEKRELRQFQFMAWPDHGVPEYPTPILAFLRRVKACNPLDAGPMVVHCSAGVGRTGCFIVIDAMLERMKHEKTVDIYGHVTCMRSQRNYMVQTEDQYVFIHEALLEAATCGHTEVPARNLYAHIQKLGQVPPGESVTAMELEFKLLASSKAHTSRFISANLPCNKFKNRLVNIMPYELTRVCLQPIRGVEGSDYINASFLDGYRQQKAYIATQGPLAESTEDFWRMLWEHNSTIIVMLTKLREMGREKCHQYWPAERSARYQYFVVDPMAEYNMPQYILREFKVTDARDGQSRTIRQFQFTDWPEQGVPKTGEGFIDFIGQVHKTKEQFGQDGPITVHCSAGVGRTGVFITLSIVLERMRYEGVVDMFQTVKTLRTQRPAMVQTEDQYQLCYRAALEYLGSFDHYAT

Turning to `COC(=O)C[C@H]1Oc2c(OC)cccc2[C@@H]2O[C@@]3(C(=O)N(Cc4ccccc4)c4ccccc43)[C@@H](c3ccc(Br)cc3)[C@]12[N+](=O)[O-]`, the concentration for half-maximal inhibition (IC50) in assay [1] is 5.43 µM.

Regarding `Cc1ccc([C@H]2[C@]34NC(=O)C[C@H]3Oc3ccc(Cl)cc3[C@@H]4O[C@@]23C(=O)N(Cc2ccccc2)c2ccccc23)cc1`, the IC50 in assay [1] is 5.61 µM. `COc1ccc2c(c1)[C@@H]1O[C@@]3(C(=O)N(Cc4ccccc4)c4ccccc43)[C@@H](c3ccc(C)cc3)[C@@]13NC(=O)C[C@H]3O2`: in assay [1], the IC50 was determined as 7.98 µM.

For the compound `COC(=O)/C=C/Oc1ccc(OC)cc1[C@@H]1O[C@@]2(C(=O)N(Cc3ccccc3)c3ccccc32)[C@@H](c2ccc(C)cc2)[C@@H]1[N+](=O)[O-]`, the IC50 in assay [1] was determined as 13.2 µM. For the compound `COc1cccc2c1O[C@@H]1CC(=O)N[C@]13[C@H]2O[C@@]1(C(=O)N(Cc2ccccc2)c2ccccc21)[C@H]3c1ccc(Br)cc1`, the IC50 in assay [1] came to 6.19 µM.

In the case of `COc1cccc2c1O[C@@H]1CC(=O)N[C@]13[C@H]2O[C@@]1(C(=O)N(Cc2ccccc2)c2ccccc21)[C@H]3c1ccc(C)cc1`, the IC50 in assay [1] was determined as 7.07 µM.

With `COC(=O)C[C@H]1Oc2ccc(Cl)cc2[C@@H]2O[C@@]3(C(=O)N(Cc4ccccc4)c4ccccc43)[C@@H](c3ccc(Br)cc3)[C@]12[N+](=O)[O-]`, in assay [1], the IC50 was determined as 4.65 µM. As for `COC(=O)/C=C/Oc1c(OC)cccc1[C@@H]1O[C@@]2(C(=O)N(Cc3ccccc3)c3ccccc32)[C@@H](c2ccc(Br)cc2)[C@@H]1[N+](=O)[O-]`, the figures for the inhibition in assay [2], in assay [3] and in assay [4] were 18.7%, 98.8% and 38.3%, respectively. The half-maximal inhibitory concentration (IC50) in assay [1] was determined as 3.89 µM; in assay [5] it was 5.29 µM.

`Cc1ccc([C@H]2[C@]34NC(=O)C[C@H]3Oc3ccc(C)cc3[C@@H]4O[C@@]23C(=O)N(Cc2ccccc2)c2ccccc23)cc1`: the figures for the inhibition in assay [2], in assay [3] and in assay [4] were 6.72%, 96.1% and 19.4%, respectively. For the same compound, the IC50 in assay [6] stood at 35.8 µM; in assay [1] it was 4.72 µM; in assay [5] it was 10.6 µM. In the case of `COC(=O)C[C@H]1Oc2c(OC)cccc2[C@@H]2O[C@@]3(C(=O)N(Cc4ccccc4)c4ccccc43)[C@@H](c3ccc(C)cc3)[C@]12[N+](=O)[O-]`, the IC50 in assay [1] is 8.2 µM.

Turning to `COc1ccccc1[C@H]1[C@]23NC(=O)C[C@H]2Oc2c(OC)cccc2[C@@H]3O[C@@]12C(=O)N(Cc1ccccc1)c1ccccc12`, the IC50 in assay [1] was determined as 10 µM. `COC(=O)C[C@H]1Oc2ccc(OC)cc2[C@@H]2O[C@@]3(C(=O)N(Cc4ccccc4)c4ccccc43)[C@@H](c3ccc(C)cc3)[C@]12[N+](=O)[O-]`: the inhibition turned out to be 15.5% in assay [2], 31.1% in assay [3] and 10.3% in assay [4]. Also, the IC50 in assay [1] was 4.53 µM.

`COc1ccc2c(c1)[C@@H]1O[C@@]3(C(=O)N(Cc4ccccc4)c4ccccc43)[C@@H](c3ccc(Br)cc3)[C@@]13NC(=O)C[C@H]3O2`: the concentration for half-maximal inhibition (IC50) in assay [1] is 6.48 µM. As to `COC(=O)C[C@H]1Oc2ccc(OC)cc2[C@@H]2O[C@@]3(C(=O)N(Cc4ccccc4)c4ccccc43)[C@@H](c3ccc(Br)cc3)[C@]12[N+](=O)[O-]`, the IC50 in assay [1] was found to be 6.67 µM. Take `COC(=O)C[C@H]1Oc2c(OC)cccc2[C@@H]2O[C@@]3(C(=O)N(Cc4ccccc4)c4ccccc43)[C@@H](c3ccccc3OC)[C@]12[N+](=O)[O-]`: the IC50 in assay [1] stood at 5.83 µM.

On to `COC(=O)/C=C/Oc1ccc(OC)cc1[C@@H]1O[C@@]2(C(=O)N(Cc3ccccc3)c3ccccc32)[C@@H](c2ccc(Br)cc2)[C@@H]1[N+](=O)[O-]`, for which the IC50 in assay [1] was determined as 5.34 µM. Consider `O=C1C[C@H]2Oc3ccc(Cl)cc3[C@@H]3O[C@@]4(C(=O)N(Cc5ccccc5)c5ccccc54)[C@@H](c4ccc(Br)cc4)[C@]23N1`, for which the IC50 in assay [1] is 6.04 µM. On to `COC(=O)/C=C/Oc1c(OC)cccc1[C@@H]1O[C@@]2(C(=O)N(Cc3ccccc3)c3ccccc32)[C@@H](c2ccc(C)cc2)[C@@H]1[N+](=O)[O-]`, for which the 50% inhibitory concentration (IC50) in assay [1] was found to be 6.8 µM. For `Cc1ccc2c(c1)[C@@H]1O[C@@]3(C(=O)N(Cc4ccccc4)c4ccccc43)[C@@H](c3ccccc3)[C@@]13NC(=O)C[C@H]3O2`, the IC50 in assay [1] was 10.3 µM.

A word on the IC50: it is the point on the concentration scale where inhibition reaches its midpoint. One may read the inhibition as the relative decrease from the control value, in per cent. Read a low inhibition as a weak effect.
